Literature values in patent US12048763B2, “Compositions and methods for treating sialorrhea” (priority 2021, dated 2024).

Details: by 6 months

For `C[N+]1(C)CCC(OC(=O)C(O)(c2ccccc2)C2CCCC2)C1` (stereo not shown) [glycopyrrolate], the “participants no longer taking the drug due to adverse effects” value is listed as 45%.
